Results on 20 compounds are retold here after US20260137706A1, “METHODS OF TREATING INFLAMMATORY DISEASES” (INTERLINE THERAPEUTICS, INC., priority 2023, published 2026).

Assay [1] deals with T1, GST-RIPK2 fusion protein (human RIPK2, amino acids 1-310) (Homo sapiens, UniProt O43353).
T1 construct: made in house; host or cells: baculovirus infected Sf9 cells
The assay can be described thus: RIPK2 binding competition assay (TR-FRET, Tracer 199 displacement). To be noted: 10 nM Tracer 199, 1 nM GST-RIPK2, read-out: RIPK2 IC50. In outline:
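IC50 derived from the TR-FRET emission ratio (665/620 nm, 337 nm excitation), normalized with no-inhibitor and no-enzyme controls. Incubation 45 min at 22 °C, pH 7.5 Tris buffer, with final 10 nM tracer, 1 nM Sf9-expressed GST-RIPK2 fragment (aa 1-310) and 0.5 nM Tb-labelled anti-GST.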
(Time-resolved FRET reads energy transfer from a long-lived donor to a nearby acceptor.)

The target of assay [2] is T2, binding of His-XIAP(BIR2)-avi fusion protein to GST-RIPK2 fusion protein (RIPK2/XIAP) (Homo sapiens, UniProt O43353).
T2 construct: made in house; host or cells: baculovirus infected Sf9 cells
T2 sequence (O43353 1-310 limits assumed): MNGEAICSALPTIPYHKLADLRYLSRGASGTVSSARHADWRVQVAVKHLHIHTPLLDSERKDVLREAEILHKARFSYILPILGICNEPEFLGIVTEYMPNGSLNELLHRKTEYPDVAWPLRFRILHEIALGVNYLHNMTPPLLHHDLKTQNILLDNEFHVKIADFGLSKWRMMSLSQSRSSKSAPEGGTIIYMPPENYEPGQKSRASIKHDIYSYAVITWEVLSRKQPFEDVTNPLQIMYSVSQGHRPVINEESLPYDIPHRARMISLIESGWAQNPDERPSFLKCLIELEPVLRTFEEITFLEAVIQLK
Nature of the assay: RIPK2-XIAP binding competition PPI assay (TR-FRET). The settings on record: for Emax: read-out: PPI Amax bin; for IC50: read-out: PPI IC50 bin. In outline:
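Compounds (in DMSO, 100-fold stock) incubated 120 min at 23 °C with 1 nM GST-RIPK2 (aa 1-310) and 25 nM His-XIAP(BIR2 aa 152-231)-avi, plus anti-His-XL665 and anti-GST-Tb, in pH 7.5 Tris buffer. Read-out: 665/520 nm emission ratio. Normalized to no-inhibitor (0%) and 50 nM GSK583 (−100%); Amax binned A–D.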

The subject of assay [3] is NF-κB pathway (SEAP) in THP1-Dual cells. Nature of the assay: THP-1 Dual cell SEAP assay (L18-MDP stimulated). Type of assay: cell-based. The settings on record: Homo sapiens, THP1-Dual, read-out: NF-κB THP1 IC50 bin. Put shortly:
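IC50 values derive from non-linear regression of % inhibition, calculated against DMSO/L18-MDP-treated wells after media-only subtraction. NF-κB SEAP activity was read at OD 620-655 nm (QUANTI-Blue, 2 h, 37 °C) from supernatants of THP1-Dual cells. Cells had been compound-treated 30 min before overnight (20-24 h) stimulation with 10 ng/mL final L18-MDP.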

The mark [4] stands for this setting: RIPK2/XIAP binding competition PPI assay, Amax.
Where [5] appears, read: RIPK2/XIAP binding competition PPI assay.

Like-named read-outs stand apart in the source and are kept apart here.

T1 sequence (O43353 1-310): as the sequence (O43353 1-310 limits assumed) above

By IC50 is commonly meant the concentration that inhibits the measured activity by half. As for `CCS(=O)(=O)Nc1cc(-c2cnc3cc(OC)c(C(=O)N4CCC(O)CC4)cn23)cc(F)c1OC` [Example 192, N-(3-fluoro-5-(6-(4-hydroxypiperidine-1-carbonyl)-7-methoxyimidazo[1,2-a]pyridin-3-yl)-2-methoxyphenyl) ethanesulfonamide], the 50% inhibitory concentration (IC50) in assay [1] was 0.0025 to 0.02 µM; in assay [2] (setting [5]), 0.0025 to 0.02 µM; in assay [3], above 1 µM. Also, the Emax in assay [2] (setting [4]) is above 80%.
In the case of `COc1cc2ncc(-c3ccc4c(N)nn(C)c4c3)n2cc1S(=O)(=O)C(C)(C)C` [Example 102, 6-(6-(tert-butylsulfonyl)-7-methoxyimidazo[1,2-a]pyridin-3-yl)-1-methyl-1H-indazol-3-amine], the IC50 in assay [1] is above 0.02 µM; in assay [2] (setting [5]), above 0.02 µM; in assay [3], above 1 µM. In addition, the Emax in assay [2] (setting [4]) was below 30%.
In the case of `COc1cc2ncc(-c3cc(F)c(N)nc3F)n2cc1S(=O)(=O)C1(C)CCN(C(=O)OC(C)(C)C)CC1` [Example 70, tert-butyl 4-((3-(6-amino-2,5-difluoropyridin-3-yl)-7-methoxyimidazo[1,2-a]pyridin-6-yl)sulfonyl)-4-methylpiperidine-1-carboxylate], the results for the IC50 in assay [1], in assay [2] (setting [5]) and in assay [3] were above 0.02 µM, above 0.02 µM and above 1 µM, respectively. The Emax in assay [2] (setting [4]) was above 80%.
As for `CC(C)(C)S(=O)(=O)c1cn2c(-c3ccc4[nH]cnc4c3)cnc2cc1OCCO` [Example 207, 2-((3-(1H-benzo[d]imidazol-5-yl)-6-(tert-butylsulfonyl)imidazo [1,2-a]pyridin-7-yl)oxy)ethan-1-ol], the IC50 in assay [1] is 0.0025 to 0.02 µM; in assay [2] (setting [5]) it was above 0.02 µM; in assay [3], above 1 µM. Also, the Emax in assay [2] (setting [4]) was below 30%.
Take `CC(C)(CO)COc1cc2ncc(-c3cc(F)c(N)nc3F)n2cc1S(=O)(=O)C(C)(C)C` [Example 47, 3-((3-(6-amino-2,5-difluoropyridin-3-yl)-6-(tert-butylsulfonyl)imidazo[1,2-a]pyridin-7-yl)oxy)-2,2-dimethylpropan-1-ol]: the IC50 in assay [1] was in the range of 0.001 to 0.0025 µM; in assay [2] (setting [5]) it was 0.001 to 0.0025 µM; in assay [3] it was 0.05 to 0.25 µM. For the same compound, the Emax in assay [2] (setting [4]) is above 80%.
For `COc1cc2ncc(-c3cccc(NS(=O)(=O)C4CCNC4)c3)n2cc1S(=O)(=O)C(C)(C)C` (centres unmarked) [Example 154, N-(3-(6-(tert-butylsulfonyl)-7-methoxyimidazo[1,2-a]pyridin-3-yl)phenyl)pyrrolidine-3-sulfonamide], the IC50 in assay [1] is 0.0025 to 0.02 µM; in assay [2] (setting [5]), 0.0025 to 0.02 µM; in assay [3] it was above 1 µM. The Emax in assay [2] (setting [4]) is above 80%.
Turning to `CC(C)(C)S(=O)(=O)c1cn2c(-c3cnc4nccn4c3)cnc2cc1OCCO` [Example 235, 2-((6-(tert-butylsulfonyl)-3-(imidazo[1,2-a]pyrimidin-6-yl)imidazo[1,2-a]pyridin-7-yl)oxy)ethan-1-ol], the figures for the 50% inhibitory concentration (IC50) in assay [1], in assay [2] (setting [5]) and in assay [3] were above 0.02 µM, above 0.02 µM and above 1 µM, respectively. For the same compound, the Emax in assay [2] (setting [4]) was below 30%.
Turning to `C[C@@H](O)COc1cc2ncc(-c3cc(Cl)c(N)nc3F)n2cc1S(=O)(=O)C(C)(C)C` [Example 212, (R)-1-((3-(6-amino-5-chloro-2-fluoropyridin-3-yl)-6-(tert-butylsulfonyl)imidazo [1,2-a]pyridin-7-yl)oxy)propan-2-ol], the 50% inhibitory concentration (IC50) was in the range of 0.001 to 0.0025 µM in assay [1], 0.001 to 0.0025 µM in assay [2] (setting [5]) and 0.05 to 0.25 µM in assay [3]. Further, the Emax in assay [2] (setting [4]) is above 80%.
Consider `COc1cc2ncc(-c3ccc(NC(C)=O)nc3)n2cc1S(=O)(=O)C(C)(C)C` [Example 8, N-(5-(6-(tert-butylsulfonyl)-7-methoxyimidazo[1,2-a]pyridin-3-yl)pyridin-2-yl)acetamide], for which the IC50 in assay [1] is above 0.02 µM; in assay [2] (setting [5]) it was above 0.02 µM; in assay [3], above 1 µM. In addition, the Emax in assay [2] (setting [4]) is below 30%.
Consider `C[C@@H](CO)COc1cn2ncc(-c3cc(F)c(N)nc3F)c2cc1S(=O)(=O)C(C)(C)C` [Example 194, (S)-3-((3-(6-amino-2,5-difluoropyridin-3-yl)-5-(tert-butylsulfonyl)pyrazolo [1,5-a]pyridin-6-yl)oxy)-2-methylpropan-1-ol], for which the half-inhibitory concentration (IC50) in assay [1] is below 0.001 µM; in assay [2] (setting [5]), 0.001 to 0.0025 µM; in assay [3], 0.05 to 0.25 µM. Also, in assay [2] (setting [4]), the Emax is above 80%.
Taken in the same sequence, the figures for `COc1cc2ncc(-c3cc(F)c(OC)c(NS(=O)(=O)C4(CO)CC4)c3)n2cc1S(=O)(=O)C(C)(C)C` [Example 180, N-(5-(6-(tert-butylsulfonyl)-7-methoxyimidazo[1,2-a]pyridin-3-yl)-3-fluoro-2-methoxyphenyl)-1-(hydroxymethyl)cyclopropane-1-sulfonamide] were 0.001 to 0.0025 µM, below 0.001 µM, 0.05 to 0.25 µM and above 80%.
Regarding `COc1cc2ncc(-c3cc(F)c(OC)c(NS(=O)(=O)c4cnn(CCO)c4)c3)n2cc1S(=O)(=O)C(C)(C)C` [Example 227, N-(5-(6-(tert-butylsulfonyl)-7-methoxyimidazo[1,2-a]pyridin-3-yl)-3-fluoro-2-methoxyphenyl)-1-(2-hydroxyethyl)-1H-pyrazole-4-sulfonamide], the half-inhibitory concentration (IC50) in assay [1] is 0.001 to 0.0025 µM; in assay [2] (setting [5]), below 0.001 µM; in assay [3] it was below 0.05 µM. The Emax in assay [2] (setting [4]) is above 80%.
As to `COc1cc2ncc(-c3cc(F)c(N)nc3F)n2cc1S(=O)(=O)N(C)C` [Example 161, 3-(6-amino-2,5-difluoropyridin-3-yl)-7-methoxy-N,N-dimethylimidazo[1,2-a]pyridine-6-sulfonamide], the concentration for half-maximal inhibition (IC50) in assay [1] is above 0.02 µM; in assay [2] (setting [5]) it was above 0.02 µM; in assay [3], above 1 µM. Also, the Emax in assay [2] was above 80%.
On to `COc1cc2ncc(-c3cc(F)c(N)nc3F)n2cc1S(=O)(=O)C(C)(C)CCCO` [Example 63, 4-((3-(6-amino-2,5-difluoropyridin-3-yl)-7-methoxyimidazo[1,2-a]pyridin-6-yl)sulfonyl)-4-methylpentan-1-ol], for which the figures for the IC50 in assay [1], in assay [2] (setting [5]) and in assay [3] were 0.0025 to 0.02 µM, 0.0025 to 0.02 µM and above 1 µM, respectively. Further, the Emax in assay [2] (setting [4]) was above 80%.
As to `COc1cc2ncc(-c3ccc4c(C)nn(C)c4c3)n2cc1S(=O)(=O)C(C)(C)C` [Example 108, 6-(6-(tert-butylsulfonyl)-7-methoxyimidazo[1,2-a]pyridin-3-yl)-1,3-dimethyl-1H-indazole], the IC50 was above 0.02 µM in assay [1], above 0.02 µM in assay [2] (setting [5]) and above 1 µM in assay [3]. Also, in assay [2] (setting [4]), the Emax is below 30%.
In the case of `C[C@H](CO)COc1cn2ncc(-c3cc(Cl)c(N)nc3F)c2cc1S(=O)(=O)C(C)(C)C` [Example 200, (R)-3-((3-(6-amino-5-chloro-2-fluoropyridin-3-yl)-5-(tert-butylsulfonyl)pyrazolo [1,5-a]pyridin-6-yl)oxy)-2-methylpropan-1-ol], the IC50 was below 0.001 µM in assay [1], below 0.001 µM in assay [2] (setting [5]) and below 0.05 µM in assay [3]. The Emax in assay [2] (setting [4]) was above 80%.
In the case of `COc1cc2ncc(-c3cc(F)c(OC)c(NS(=O)(=O)c4cnn(C)c4)c3)n2cc1S(=O)(=O)C(C)(C)C` [Example 135, N-(5-(6-(tert-butylsulfonyl)-7-methoxyimidazo[1,2-a]pyridin-3-yl)-3-fluoro-2-methoxyphenyl)-1-methyl-1H-pyrazole-4-sulfonamide], the IC50 was below 0.001 µM in assay [1], below 0.001 µM in assay [2] (setting [5]) and below 0.05 µM in assay [3]. In addition, in assay [2] (setting [4]), the Emax is above 80%.
Consider `COc1cc2ncc(-c3ccc4c(N)noc4c3)n2cc1S(=O)(=O)C(C)(C)C` [Example 93, 6-(6-(tert-butylsulfonyl)-7-methoxyimidazo[1,2-a]pyridin-3-yl)benzo[d]isoxazol-3-amine], for which the values for the IC50 in assay [1], in assay [2] (setting [5]) and in assay [3] were 0.0025 to 0.02 µM, above 0.02 µM and 0.25 to 1 µM, respectively. In addition, the Emax in assay [2] (setting [4]) is below 30%.
The like results for `CC(C)(C)S(=O)(=O)c1cn2c(-c3cc(F)c(N)nc3F)cnc2cc1OCCN1CCNCC1` [Example 21, 5-(6-(tert-butylsulfonyl)-7-(2-(piperazin-1-yl)ethoxy)imidazo[1,2-a]pyridin-3-yl)-3,6-difluoropyridin-2-amine] were, in that order, 0.001 to 0.0025 µM, 0.0025 to 0.02 µM, above 1 µM and above 80%.
The like results for `COc1cc2ncc(-c3ccc4cncn4c3)n2cc1S(=O)(=O)C(C)(C)C` [Example 113, 6-(tert-butylsulfonyl)-3-(imidazo[1,5-a]pyridin-6-yl)-7-methoxyimidazo[1,2-a]pyridine] were, in that order, above 0.02 µM, above 0.02 µM, above 1 µM and below 30%.
